Data on 3 molecules can be found in ChEMBL document CHEMBL2331194, “Ligerin, an antiproliferative chlorinated sesquiterpenoid from a marine-derived Penicillium strain” (J Nat Prod, 2013).

Data set [1] in a line: Antiproliferative activity against rat OSRGA cells assessed as inhibition of cell viability after 72 hrs by XTT assay. The class given is functional, cell-based.
Data set [2] is described as follows: Antiproliferative activity against mouse POS1 cells assessed as inhibition of cell viability after 72 hrs by XTT assay. It counts as functional, cell-based. The settings on record: POS1, 72 h. (In general: Tetrazolium dyes change colour on reduction, which living cells bring about.)
Data set [3] is described as follows: Antiproliferative activity against mouse L929 cells assessed as inhibition of cell viability at 60 to 2400 nM after 72 hrs by XTT assay. The class given is cell-based. On the set-up: dose or concentration left out as unconfirmed.
Data set [4] can be described thus: Antiproliferative activity against rat AT6-1 cells assessed as inhibition of cell viability at 60 to 2400 nM after 72 hrs by XTT assay. It counts as functional.
A short description of data set [5]: Antiproliferative activity against rat OSRGA cells assessed as inhibition of cell viability at 60 to 2400 nM after 72 hrs by XTT assay. The class given is functional.
The subject of a further data set is L929. Description: cells. Conditions: Mus musculus, L929, 72 h.
Another data set can be described thus: cells. The settings on record: Rattus norvegicus, 72 h.
In the next data set the test system is KB. Description: cells. Conditions: Homo sapiens, 72 h.

A word on the IC50: it is the concentration that gives 50% inhibition. One may read the inhibition as how much of the control response was suppressed.

Description for KB: Antiproliferative activity against human KB cells assessed as inhibition of cell viability after 72 hrs by MTT assay
Description for L929: Antiproliferative activity against mouse L929 cells assessed as inhibition of cell viability after 72 hrs by XTT assay

As to `COc1cccc2c1C(=O)c1c(O)c3c(c(O)c1C2=O)C[C@@](O)(C(=O)CO)C[C@@H]3O[C@H]1C[C@H](N)[C@H](O)[C@H](C)O1` [DOXORUBICIN], the IC50 in data set [1] is 93 nM; in data set [2], 43 nM.

As for `CO[C@@H]1[C@H](OC(=O)CCC(=O)O)CC[C@](O)(CCl)[C@H]1[C@@]1(C)O[C@@H]1CC=C(C)C` [LIGERIN], the inhibition at 72 h in data set [3] came out at 35%. For the same molecule, the “inhibition (INH)” value in data set [4] turned out to be 20%; in data set [5], 22%. The IC50 in data set [1] is greater than 2400 nM; in data set [2] it was 117 nM; in the data set on L929, greater than 2400 nM; in the data set “cells”, greater than 2400 nM; in the data set with KB it was greater than 478000 nM.

For the molecule `C=C(C)C1(O)OC(=O)C=C1OC` (centres undefined) [PENICILLIC ACID], the IC50 was 7800 nM in data set [2], 12900 nM in the data set on L929, 29400 nM in “cells” and greater than 100000 nM in the data set with KB.
